Results published in PubChem BioAssay (NCI).
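Five concentrations, 48 hours, 96-well plates. TGI is the concentration that stops growth completely.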

Columns and labels:
Assay in all cases: NCI-60 cell line screen, 48 h
TK-10 renal = system: TK-10 renal
HS 578T breast = system: HS 578T breast
786-0 renal = system: 786-0 renal
NCI-H226 lung = system: NCI-H226 lung
PC-3 prostate = system: PC-3 prostate
CCRF-CEM leukemia = system: CCRF-CEM leukemia
NCI-H23 lung = system: NCI-H23 lung
MDA-N = system: MDA-N
LOX IMVI melanoma = system: LOX IMVI melanoma
SK-MEL-28 melanoma = system: SK-MEL-28 melanoma
SF-268 CNS = system: SF-268 CNS
SNB-75 CNS = system: SNB-75 CNS
ACHN renal = system: ACHN renal
MDA-MB-435 = system: MDA-MB-435
UACC-257 melanoma = system: UACC-257 melanoma
NCI-H460 lung = system: NCI-H460 lung
HOP-92 NSCLC = system: HOP-92 NSCLC
SR leukemia = system: SR leukemia
T-47D breast = system: T-47D breast

SMILES | TGI (TK-10 renal) | TGI (HS 578T breast) | TGI (786-0 renal) | TGI (NCI-H226 lung) | TGI (PC-3 prostate) | TGI (CCRF-CEM leukemia) | TGI (NCI-H23 lung) | TGI (MDA-N) | TGI (LOX IMVI melanoma) | TGI (SK-MEL-28 melanoma) | TGI (SF-268 CNS) | TGI (SNB-75 CNS) | TGI (ACHN renal) | TGI (MDA-MB-435) | TGI (UACC-257 melanoma) | TGI (NCI-H460 lung) | TGI (HOP-92 NSCLC) | TGI (SR leukemia) | TGI (T-47D breast)
COc1ccc(-c2csc(Cc3nc4ccccc4c(=O)n3-c3ccc(Cl)cc3)n2)cc1 | > 100 µM | > 100 µM | > 100 µM | > 100 µM | > 100 µM | > 100 µM | > 100 µM | 59 µM | > 100 µM | 59.5 µM | > 100 µM | > 100 µM | > 100 µM | > 100 µM | > 100 µM | > 100 µM |  |  | 
O=C1/C(=C/c2cccc(Br)c2)Cc2ccccc21 | > 100 µM | > 100 µM | > 100 µM | > 100 µM | > 100 µM | > 100 µM | > 100 µM | > 100 µM | > 100 µM | > 100 µM | > 100 µM | > 100 µM | > 100 µM | > 100 µM | > 100 µM | > 100 µM | > 100 µM | > 100 µM | 
COC(=O)[C@]12CCC(C)(C)C[C@H]1[C@H]1C(=O)C=C3[C@@]4(C)C=C(C#N)C(=O)C(C)(C)[C@@H]4CC[C@@]3(C)[C@]1(C)CC2 | 0.152 µM | 2.14 µM | 0.415 µM | 0.301 µM | 0.469 µM | > 100 µM | 0.0392 µM |  |  |  |  | 3.62 µM | 0.0639 µM | 0.0585 µM | 0.0795 µM | > 13.5 µM | 4.03 µM | 0.141 µM | 0.159 µM
CC(C)CC(NC(=O)C(CI)Cc1ccccc1)C(=O)Nc1ccccc1 (stereo unspecified) | > 100 µM |  | > 100 µM |  | > 100 µM | > 100 µM | > 100 µM | > 100 µM | > 100 µM | > 100 µM |  | > 100 µM | > 100 µM | > 100 µM | > 100 µM | > 100 µM | > 100 µM | > 100 µM | 
COc1ccc2c(c1)nc1n2C(c2c(Cl)cccc2Cl)SC1 (stereo unspecified) | > 100 µM | 49.4 µM | > 100 µM | > 100 µM | > 82.3 µM | > 100 µM | > 100 µM |  | > 100 µM | > 100 µM | > 100 µM | > 75.1 µM | > 100 µM | > 23.6 µM | > 100 µM | > 100 µM | > 100 µM | > 100 µM | > 72.3 µM
N#CC1=C(Nc2ccccc2)SC=C(c2ccccc2)NC1=NCc1ccccc1 | > 100 µM |  | > 100 µM |  | > 100 µM |  | > 100 µM | > 100 µM |  | > 100 µM | > 100 µM |  | > 100 µM | > 100 µM |  |  |  | 59.1 µM | > 100 µM
COc1ccc(-c2nc(-c3cc4c(ccc5ccccc54)oc3=O)cs2)cc1 | > 100 µM | > 100 µM | 82 µM | > 100 µM | > 100 µM | > 100 µM |  |  | > 100 µM | > 100 µM | > 100 µM | > 100 µM | > 100 µM | > 100 µM | > 100 µM | > 100 µM | > 100 µM | > 100 µM | > 100 µM
CCOC(=O)c1c(NC(=O)OC)c(C#N)c2n1CCCCC2 | > 100 µM | > 100 µM | > 100 µM | > 100 µM | > 100 µM | > 100 µM | > 100 µM |  | > 100 µM | > 100 µM | > 100 µM | > 100 µM | > 100 µM | > 100 µM | > 100 µM | > 100 µM | > 100 µM | > 100 µM | > 100 µM
Cc1nn(C(=O)Cc2ccccc2)c2c1C(c1ccc(Cl)cc1)SC(N)=N2 (stereo unspecified) | > 100 µM | > 100 µM | > 100 µM |  | > 100 µM | > 100 µM | > 100 µM |  | > 100 µM | > 100 µM | > 100 µM | 96.9 µM | > 100 µM | > 100 µM | > 100 µM | > 100 µM |  | > 100 µM | > 100 µM
COC1=CC2C(c3cc4ccccc4n3S(=O)(=O)c3ccccc3)CC1CN2C(=O)OCc1ccccc1 (stereo unspecified) | > 100 µM | > 100 µM | > 100 µM | > 100 µM | > 100 µM | > 100 µM | > 100 µM | > 100 µM | 57.7 µM |  |  | 33.7 µM | > 100 µM | 75.9 µM | > 100 µM | > 100 µM |  |  | 
Nc1nc(NCC2(CO)CC2)cc(=O)[nH]1 |  | > 100 µM | > 100 µM | > 100 µM | > 100 µM | > 100 µM | > 100 µM |  | > 100 µM | > 100 µM | > 100 µM | > 100 µM | > 100 µM | > 100 µM | > 100 µM | > 100 µM | > 100 µM | > 100 µM | > 100 µM
N#Cc1[nH]c(=S)[nH]c1N | > 100 µM | > 100 µM | > 100 µM | > 100 µM | > 100 µM | > 100 µM | > 100 µM |  | > 100 µM | > 100 µM | > 100 µM | > 100 µM | > 100 µM | > 100 µM | > 100 µM | > 100 µM | > 100 µM | > 100 µM | 
CC(=O)O[C@H]1CC[C@@]2(C)C(=CC[C@@H]3[C@@H]2CC[C@]2(C)NC(=O)/C(=C\c4ccccc4)C[C@@H]32)C1 | 80.5 µM |  | 41.4 µM | 40.8 µM | 44.5 µM | 55.4 µM | 33.1 µM | 42.6 µM | 33.4 µM | 32.3 µM | 37.9 µM | 44.3 µM | 76.1 µM | 33.2 µM | 43.9 µM | 95.3 µM |  | > 100 µM | 69.2 µM
COc1ccc2c(c1)C(=O)OCCC2 | > 100 µM | > 100 µM | > 100 µM | > 100 µM | > 100 µM | > 100 µM | > 100 µM |  |  | > 100 µM | > 100 µM | > 100 µM | > 100 µM | > 100 µM | > 100 µM | > 100 µM | > 100 µM |  | > 100 µM
CC(O)CCCCC(O)CCC[C@H](O)[C@H]1CCC([C@H]2CCC([C@@H](O)CCCCCCCCCCCCC3=C[C@H](C)OC3=O)O2)O1 (stereo partly specified) | 19.6 µM | 29 µM | 25.9 µM | 19.5 µM | 21.2 µM | 31.7 µM | 19.5 µM | 22 µM |  | 23.9 µM | 22.4 µM | 18.9 µM | 21.1 µM | 18.5 µM | 20.7 µM | 18.1 µM | 21.6 µM | 20.5 µM | 
COc1ccc(-n2cnn3c(=O)c4cn[nH]c4nc23)cc1 | > 10 µM | > 10 µM | > 10 µM | > 10 µM | > 10 µM | > 10 µM | > 10 µM |  | > 10 µM |  | > 10 µM | > 10 µM | > 10 µM | > 10 µM | > 10 µM | > 10 µM | > 10 µM | > 10 µM | 
CC1=CCC(C)=Nc2nc3ccccc3n21 | > 100 µM | > 100 µM | > 100 µM | > 100 µM | > 100 µM | > 100 µM | > 100 µM |  | > 100 µM | > 100 µM | > 100 µM |  | > 100 µM | > 100 µM | > 100 µM | > 100 µM | > 100 µM | > 100 µM | > 100 µM
COC(=O)C1=C(C(=O)Nc2cccnc2Cl)N(c2ccc(OC)cc2[N+](=O)[O-])C(c2ccc(C)cc2)=CC1c1ccc(OC)cc1OC (stereo unspecified) | > 64.2 µM | 67.4 µM | > 87.7 µM | 38.1 µM | > 100 µM | > 36.8 µM | > 85 µM |  | 17 µM | > 100 µM | 78.5 µM | 72.3 µM | > 81.6 µM | > 100 µM | > 100 µM | > 79.3 µM | > 100 µM | 21.6 µM | 88.3 µM
Cc1ccccc1N/C(=C(/C(Cl)=C(Cl)Cl)[N+](=O)[O-])n1nnc2ccccc21 |  | 27.1 µM | > 100 µM | 35.3 µM | 80.7 µM | > 100 µM | 33.3 µM |  |  | 30.9 µM | 30.8 µM | 34.2 µM | > 100 µM | 30.1 µM | > 100 µM | 28.5 µM |  |  | 58 µM
CC1(C)CC(=O)C(C=NC(=O)c2ccncc2)=C(O)C1 | > 100 µM | > 100 µM | > 100 µM | > 100 µM | > 100 µM | > 100 µM | > 100 µM | > 100 µM | > 100 µM | > 100 µM | > 100 µM | > 100 µM | > 100 µM | > 100 µM | > 100 µM | > 100 µM | > 100 µM |  | 
COc1ccc(OC)c(C(Cc2ccnc3ccccc23)Cc2ccnc3ccccc23)c1 | > 10 µM | > 10 µM | > 10 µM | > 10 µM | > 10 µM | > 10 µM | > 10 µM |  | > 10 µM | > 10 µM | > 10 µM | > 10 µM | > 10 µM | > 10 µM | > 10 µM | > 10 µM | > 10 µM |  | > 10 µM
